{"source": "paper PMC9914026", "about": "“Identification of a Novel ACE Inhibitory Hexapeptide from Camellia Seed Cake and Evaluation of Its Stability” (Foods, 2023)", "key": {"[1]": {"target": "T1, Angiotensin I-converting enzyme (ACE) from rabbit lungs (Oryctolagus cuniculus, UniProt P12822)", "T1 construct": "Angiotensin I-converting enzyme (ACE) from rabbit lungs (0.1 U); purchased Sigma-Aldrich (St. Louis, MO, USA); host or cells: rabbit lung tissue", "T1 sequence (P12822 34-1310)": "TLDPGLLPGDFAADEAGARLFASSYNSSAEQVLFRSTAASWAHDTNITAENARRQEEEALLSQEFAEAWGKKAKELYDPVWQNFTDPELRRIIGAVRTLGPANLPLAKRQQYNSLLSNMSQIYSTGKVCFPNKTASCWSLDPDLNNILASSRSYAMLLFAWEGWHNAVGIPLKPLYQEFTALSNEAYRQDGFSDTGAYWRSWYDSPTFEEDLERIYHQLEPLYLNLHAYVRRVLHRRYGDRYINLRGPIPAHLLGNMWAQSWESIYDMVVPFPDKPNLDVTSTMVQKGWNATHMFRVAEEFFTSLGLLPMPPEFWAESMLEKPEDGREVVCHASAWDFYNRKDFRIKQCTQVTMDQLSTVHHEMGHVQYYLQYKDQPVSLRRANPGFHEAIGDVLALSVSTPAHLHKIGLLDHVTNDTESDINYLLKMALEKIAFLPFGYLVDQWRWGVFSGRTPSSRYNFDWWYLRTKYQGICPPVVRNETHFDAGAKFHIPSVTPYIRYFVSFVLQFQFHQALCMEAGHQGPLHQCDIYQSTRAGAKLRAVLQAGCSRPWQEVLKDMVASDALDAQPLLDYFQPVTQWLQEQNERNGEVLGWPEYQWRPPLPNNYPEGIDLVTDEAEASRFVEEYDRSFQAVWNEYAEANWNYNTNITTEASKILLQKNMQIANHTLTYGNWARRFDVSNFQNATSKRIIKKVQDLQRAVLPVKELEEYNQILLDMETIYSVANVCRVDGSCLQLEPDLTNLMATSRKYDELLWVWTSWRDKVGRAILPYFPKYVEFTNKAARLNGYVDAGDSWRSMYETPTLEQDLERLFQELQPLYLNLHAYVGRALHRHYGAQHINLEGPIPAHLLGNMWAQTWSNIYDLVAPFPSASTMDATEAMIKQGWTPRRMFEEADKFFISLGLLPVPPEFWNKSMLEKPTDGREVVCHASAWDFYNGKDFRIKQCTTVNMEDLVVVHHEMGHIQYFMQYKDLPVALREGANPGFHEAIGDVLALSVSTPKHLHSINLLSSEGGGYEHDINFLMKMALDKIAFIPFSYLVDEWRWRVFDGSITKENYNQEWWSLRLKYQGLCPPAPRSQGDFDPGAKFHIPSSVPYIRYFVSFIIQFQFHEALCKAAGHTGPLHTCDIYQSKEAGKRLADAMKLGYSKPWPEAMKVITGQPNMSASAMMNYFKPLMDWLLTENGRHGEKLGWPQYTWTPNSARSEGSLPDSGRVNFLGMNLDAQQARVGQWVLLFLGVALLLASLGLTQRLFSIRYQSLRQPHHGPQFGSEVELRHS", "assay": "Stability after in vitro treatment with digestive enzymes (pepsin, trypsin)", "format": "in vitro ADME", "details": "0.4 mg/mL, 2 h, read-out ACE inhibition rate, n = 3", "method": "(§1) The ACE inhibition rate was determined using High-Performance Liquid Chromatography (HPLC). In summary, 60 μL of HHL (2.5 mM) and 20 μL of samples were mixed and incubated at 37 °C for 5 min before 40 μL of ACE (0.05 U/mL) was added. The mixture was incubated at 37 °C for 1 h. Finally, the reaction was terminated by adding 120 μL of HCl solution (1 mol/L). The content of HA in the reaction system was detected by a PITC pre-column derivatization HPLC (Shimadzu LC-20AT) with a column C18 Hypersil ODS2 (4.6 mm×250 mm, 5 μm) at 228 nm. Isocratic elution was processed with the acetonitrile-water (volume ratio 1:3, each containing 0.1% TFA) solution at a constant flow rate of 1 mL/min. The ACE inhibition rate (%) was calculated based on the following formula:ACE inhibition rate (%) = [(A0 − A1) / A0] × 100%(4) where A0 and A1 equal the HA peak areas of the blank control and sample, respectively.\nThe stability of VVVPQN after in vitro treatment with digestive enzymes was carried out by the method of Chai with some modifications. Briefly, in a water bath at 37 °C, VVVPQN (0.4 mg/mL) was first digested with 2% (w/w) pepsin at pH 2.0 for 2 h. The pH was then adjusted to 7.0 before trypsin was added at a 1:50 enzyme to substrate ratio. […] The stability of VVVPQN was evaluated by comparing the ACE inhibition rate before and after the digestion."}, "[2]": {"target": "T1, Angiotensin I-converting enzyme (ACE) from rabbit lungs", "assay": "ACE inhibitory activity (HHL substrate, HPLC of hippuric acid)", "format": "biochemical", "description": "Camellia seeds were purchased from Quzhou City, Zhejiang Province. Angiotensin I-converting enzyme (ACE) from rabbit lungs (0.1 U) (Table A1), ACE substrate hippuryl-histidyl-leucine (HHL) and hippuric acid (HA) standards were purchased from Sigma-Aldrich (St. Louis, MO, USA). Neutral protease (50,000 U/g), alkaline protease (200,000 U/g), papain (800,000 U/g), trypsin (250,000 U/g), and Sephadex G-25 were purchased from Beijing Solarbio Science & Technology Co., Ltd. (Beijing, China). All other chemicals used were of analytical grade.\nas §1, with “The ACE inhibition rate (%) was calculated based on the following formula:ACE inhibition rate (%) = [(A0 − A1) / A0] × 100%(4) where A0 and A1 equal the HA peak areas of the blank control and sample, respectively.” left out"}}, "note": "Peptide text beside a SMILES is read from it."}
{"smiles": "CC(C)[C@H](N)C(=O)N[C@H](C(=O)N[C@H](C(=O)N1CCC[C@H]1C(=O)N[C@@H](CCC(N)=O)C(=O)N[C@@H](CC(N)=O)C(=O)O)C(C)C)C(C)C", "note": "[VVVPQN, Val-Val-Val-Pro-Gln-Asn] (H-VVVPQN-OH)", "values": [{"measurement": "Change of ACE inhibitory activity after simulated gastric digestion", "setting": "[1]; 2% (w/w) pepsin, pH 2.0, 37 °C", "result": "decreased significantly"}, {"measurement": "Change of ACE inhibitory activity after further simulated intestinal digestion", "setting": "[1]; after pepsin: trypsin 1:50 enzyme to substrate, pH 7.0, 37 °C", "result": "did not change significantly"}, {"measurement": "IC50", "setting": "[2]; from regression equation y = 23.595 ln(x) + 98.175", "result": 199, "unit": "µM"}, {"measurement": "ACE inhibitory activity", "setting": "[2]; synthetic peptide 0.5 mg/mL, HHL 2.5 mM, ACE 0.05 U/mL, 37 °C 1 h, HPLC 228 nm, mean, n = 3", "result": 80.46, "unit": "%"}]}
